The values that follow come from article PMC8280112, “Substrate reduction therapy for Krabbe disease and metachromatic leukodystrophy using a novel ceramide galactosyltransferase inhibitor” (Scientific Reports, 2021).

This assay deals with T1, Human CGT (Homo sapiens, UniProt Q16880).
T1 construct: made in house; host or cells: CHO cells expressing UGT8; crude M-PER lysate
T1 sequence (Q16880 21-541): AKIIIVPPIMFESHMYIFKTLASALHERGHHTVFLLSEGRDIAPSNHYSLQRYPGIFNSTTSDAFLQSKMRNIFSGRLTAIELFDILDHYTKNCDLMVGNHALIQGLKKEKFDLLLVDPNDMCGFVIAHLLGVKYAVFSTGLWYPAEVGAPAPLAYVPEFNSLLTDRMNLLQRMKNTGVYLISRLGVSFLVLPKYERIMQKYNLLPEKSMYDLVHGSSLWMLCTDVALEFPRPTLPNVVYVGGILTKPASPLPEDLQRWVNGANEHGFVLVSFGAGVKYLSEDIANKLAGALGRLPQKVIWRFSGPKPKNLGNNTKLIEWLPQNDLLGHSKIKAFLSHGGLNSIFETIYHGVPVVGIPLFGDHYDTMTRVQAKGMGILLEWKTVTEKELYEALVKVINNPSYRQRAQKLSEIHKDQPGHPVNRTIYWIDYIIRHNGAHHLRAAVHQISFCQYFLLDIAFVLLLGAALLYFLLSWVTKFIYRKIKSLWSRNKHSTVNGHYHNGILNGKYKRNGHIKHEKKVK
The assay is described as follows: CGT enzyme assay (cell-lysate assay). It counts as biochemical. The settings on record: lysate of CHO cells expressing human UGT8. The method, then: Human CGT was obtained from a cell lysate from CHO cells expressing UGT8 (made by BioMarin) prepared in M-PER with proteinase inhibitors (Sigma). Compounds, serially diluted in DMSO and Tween 80, were added to 4 µg/well of CHO/CGT cell lysate to make 20 µL final reaction volume containing 0.5% DMSO and 0.01% Tween 80 in the reaction buffer consisting of 10 µM NDB-(2R-OH)-C6 ceramide (made by BioMarin), 17.5 µM UDP-Galactose (Sigma), 35 µM of dioleoylphosphatidylcholine (DOPC), 5 mM MgCl2, 5 mM MnCl2, 1% BSA, 15 mM KCl, 1 mM EGTA, 8 mM CHAPS, 10 mM HEPES–NaOH pH 7.2. The reaction was incubated at 37 °C for 1 h and stopped by adding 80 µL of methanol:acetonitrile (1:3) with 5 µM N-dodecanoyl-NBD-galactosylceramide (Matreya) internal standard (IS) for 30 min. 200 µL H2O:ACN (1:1) was added for 5 min and then centrifuged at 4000 rpm for 38 min at RT before quantifying NDB-(2R-OH)-C6-galactosylceramide (BioMarin) by LC–MS on a Rapid Fire 360 mass spectrometer (Agilent) coupled with a API4000 + MS in electrospray ionization (ESI) negative mode (Applied Biosystems). These assay conditions were used to screen the Bio-active lipid library (Cayman Cat# 10506).

Take `O=C1N(c2ccc(Br)cc2)C(=O)C(O)(c2ccccc2)N1c1ccc(Br)cc1` (stereo not shown) [S221]: the IC50 (as a rule, the midpoint of a concentration-inhibition curve) was 23 µM.
